Measurements taken from the supplement of paper PMC10307832.

Columns and labels:
Test in all cases: relative viability (nuclei count vs DMSO), 5 days (fraction); higher = more cells survive
[1] = compound: COc1cc2ncn(-c3cc(OCc4ccccc4C(F)(F)F)c(C(N)=O)s3)c2cc1OC + Cc1nc(Nc2ncc(C(=O)Nc3c(C)cccc3Cl)s2)cc(N2CCN(CCO)CC2)n1 [Dasatinib] (partner 0.075 µM)
Procedure, shortened: (§1)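 Lung cancer cell lines were seeded in 1536-well plates and dosed by pin tool the next day, with either a single drug or a fixed anchor-drug dose combined with five library-drug doses (not always all listed) spaced in √10 steps. Five days later, one step fixed the cells and stained their nuclei (final 0.05% Triton X-100, 1% formaldehyde, 1 ug/ml Hoechst), and nuclei were counted on 4× images. Relative viability is the nuclei count in treated wells divided by the count in vehicle wells, and each value is the median of duplicate plates.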

[2] = compound: COc1cc2ncn(-c3cc(OCc4ccccc4C(F)(F)F)c(C(N)=O)s3)c2cc1OC + Cc1cc(Nc2cc(N3CCN(C)CC3)nc(Sc3ccc(NC(=O)C4CC4)cc3)n2)n[nH]1 [Tozasertib] (partner 0.1 µM)
Procedure, shortened: as §1

[3] = compound: COc1cc2ncn(-c3cc(OCc4ccccc4C(F)(F)F)c(C(N)=O)s3)c2cc1OC + Cc1nc(NC(=O)N2CCC[C@H]2C(N)=O)sc1-c1ccnc(C(C)(C)C(F)(F)F)c1 [Alpelisib] (partner 2 µM)
Procedure, shortened: as §1

[4] = compound: COc1cc2ncn(-c3cc(OCc4ccccc4C(F)(F)F)c(C(N)=O)s3)c2cc1OC + CCNC(=O)c1noc(-c2cc(C(C)C)c(O)cc2O)c1-c1ccc(CN2CCOCC2)cc1 [Luminespib] (partner 0.01 µM)
Procedure, shortened: as §1

Cell Line | relative viability ([1]; first compound 0.05 µM) | relative viability ([1]; first compound 0.1581 µM) | relative viability ([1]; first compound 0.5 µM) | relative viability ([1]; first compound 1.581 µM) | relative viability ([1]; first compound 5 µM) | relative viability ([2]; first compound 0.05 µM) | relative viability ([2]; first compound 0.1581 µM) | relative viability ([2]; first compound 0.5 µM) | relative viability ([2]; first compound 1.581 µM) | relative viability ([2]; first compound 5 µM) | relative viability ([3]; first compound 0.05 µM) | relative viability ([3]; first compound 0.1581 µM) | relative viability ([3]; first compound 0.5 µM) | relative viability ([3]; first compound 1.581 µM) | relative viability ([3]; first compound 5 µM) | relative viability ([4]; first compound 0.05 µM) | relative viability ([4]; first compound 0.1581 µM) | relative viability ([4]; first compound 0.5 µM) | relative viability ([4]; first compound 1.581 µM) | relative viability ([4]; first compound 5 µM)
201T | 0.543 | 0.536 | 0.546 | 0.45 | 0.244 | 1.03 | 1.09 | 0.809 | 0.426 | 0.324 | 1 | 1.08 | 0.984 | 0.475 | 0.297 | 1.07 | 1.08 | 1 | 0.689 | 0.28
A-427 | 0.839 | 0.501 | 0.602 | 0.175 | 0.088 | 0.195 | 0.188 | 0.176 | 0.162 | 0.142 | 1.01 | 1.13 | 1 | 0.486 | 0.161 | 0.998 | 0.973 | 0.617 | 0.246 | 0.114
ABC-1 | 0.539 | 0.542 | 0.469 | 0.276 | 0.239 | 0.219 | 0.223 | 0.155 | 0.251 | 0.255 | 1.25 | 1.02 | 0.786 | 0.316 | 0.319 | 0.709 | 0.679 | 0.255 | 0.311 | 0.263
BEN | 0.363 | 0.327 | 0.29 | 0.186 | 0.229 | 0.514 | 0.498 | 0.5 | 0.56 | 0.47 | 1.18 | 1 | 0.81 | 0.262 | 0.391 | 0.398 | 0.522 | 0.227 | 0.21 | 0.214
CAL-12T | 0.415 | 0.249 | 0.0865 | 0.105 | 0.122 | 0.316 | 0.26 | 0.208 | 0.164 | 0.2 | 1.03 | 0.973 | 0.513 | 0.188 | 0.196 | 0.858 | 0.44 | 0.446 | 0.217 | 0.102
COR-L23 | 0.434 | 0.364 | 0.203 | 0.102 | 0.0618 | 0.213 | 0.189 | 0.13 | 0.143 | 0.139 | 0.85 | 0.746 | 0.334 | 0.0804 | 0.0944 | 0.363 | 0.604 | 0.249 | 0.104 | 0.0965
COR-L 105 | 0.337 | 0.33 | 0.273 | 0.22 | 0.19 | 0.43 | 0.383 | 0.392 | 0.284 | 0.277 | 1.13 | 0.913 | 0.857 | 0.34 | 0.258 | 0.828 | 0.846 | 0.616 | 0.312 | 0.245
Calu-6 |  |  |  |  |  |  |  |  |  |  | 0.92 | 0.67 | 0.23 | 0.128 | 0.112 |  |  |  |  | 
ChaGo-K-1 | 0.629 | 0.332 | 0.574 | 0.17 | 0.138 | 0.212 | 0.219 | 0.197 | 0.251 | 0.184 |  |  |  |  |  | 0.617 | 0.516 | 0.285 | 0.18 | 0.14
EKVX | 0.661 | 0.604 | 0.425 | 0.271 | 0.224 | 0.371 | 0.408 | 0.311 |  | 0.229 | 0.889 | 0.982 | 0.834 | 0.21 | 0.215 | 1 | 1.01 | 0.64 |  | 0.578
EMC-BAC-2 | 0.328 | 0.361 | 0.296 | 0.168 | 0.139 | 0.332 | 0.314 | 0.223 | 0.215 | 0.245 | 0.804 | 0.799 | 0.639 | 0.403 | 0.149 | 1.19 | 1.22 | 0.931 | 0.569 | 0.219
EPLC-272H |  | 0.408 | 0.142 | 0.0755 | 0.103 |  | 0.306 | 0.169 | 0.148 | 0.147 | 0.9 | 0.869 | 0.402 | 0.126 | 0.129 |  | 0.31 | 0.115 | 0.111 | 0.153
H3255 | 0.346 | 0.349 | 0.344 |  | 0.279 | 0.563 | 0.722 | 0.451 |  | 0.41 | 0.626 | 0.796 | 0.444 | 0.335 | 0.233 | 0.861 | 0.924 | 0.757 |  | 0.518
HARA | 0.242 | 0.299 | 0.284 | 0.0989 | 0.0669 | 0.091 | 0.117 | 0.117 | 0.111 | 0.0871 | 0.894 | 0.764 | 0.712 | 0.176 | 0.0641 | 0.951 | 0.654 | 0.238 | 0.0482 | 0.0507
HCC-15 | 0.582 | 0.548 | 0.242 | 0.105 | 0.0655 | 0.509 | 0.394 | 0.138 | 0.151 | 0.139 | 0.93 | 0.749 | 0.283 | 0.142 | 0.1 | 0.312 | 0.291 | 0.149 | 0.101 | 0.0855
HCC-44 |  |  |  |  |  | 0.983 | 0.903 | 0.242 | 0.346 | 0.199 | 0.908 | 0.76 | 0.503 | 0.13 | 0.0819 | 0.854 | 1.13 | 0.613 | 0.168 | 0.132
HCC-78 | 0.463 | 0.537 | 0.306 | 0.317 | 0.206 | 0.517 | 0.345 | 0.325 | 0.222 | 0.292 | 0.371 | 0.402 | 0.289 | 0.206 | 0.27 |  |  |  |  | 
HCC-366 | 0.675 | 0.67 | 0.338 | 0.0209 | 0.0192 | 0.101 | 0.12 | 0.0568 | 0.0457 | 0.046 | 0.656 | 0.246 | 0.123 | 0.0134 | 0.0086 |  |  |  |  | 
